Assay results published in patent US20050187253A1, “Medicinal kit to quit tobacco consumption comprising central cannabinoid receptor antagonist” (Sanofi-Aventis, priority 2000, published 2005).

How the values were obtained:
[1] = test system: rats which have learnt to self-administer nicotine intravenously; test: self-administration of nicotine in rats (model predicting effects on nicotine dependence); format: in vivo; settings: intravenous nicotine self-administration
Description: The effects of compound A were studied in rats on a model which predicts the effects on nicotine dependence: the self-administration of nicotine according to W.T. Corrigal and al. Psychopharmacology, 1989, 99, 473-478.

[2] = test system: individuals who smoked more than 15 cigarettes a day and who showed symptoms of nicotine dependence; test: double-blind placebo-controlled study of withdrawal from tobacco in smokers; format: in vivo, human; settings: 40 mg per day for 10 weeks, including 2 weeks before start of withdrawal; in particular during the last 4 weeks of treatment; confirmed by exhaled carbon monoxide and plasma cotinine
Experimental: The patients received 40 mg of compound A per day for 10 weeks, including 2 weeks before the start of the period of withdrawal from tobacco. […] The withdrawal from tobacco was confirmed by weekly measurement of the levels of carbon monoxide exhaled and of cotinine in the plasma.

Question: `Cc1c(C(=O)NN2CCCCC2)nn(-c2ccc(Cl)cc2Cl)c1-c1ccc(Cl)cc1` [compound A, N-piperidino-5-(4-chloro-phenyl)-1-(2,4-dichlorophenyl)-4-methylpyrazole-3-carboxamide] was tested. Which “number of nicotine injections” value ([1]; compound A at a dose of 0.3 mg/kg) did it give?
Answer: reduces, in a statistically significant manner

Question: And the “number of nicotine injections” value ([1]; compound A at a dose of 1 mg/kg)?
Answer: reduces, in a statistically significant manner

Question: What about the “level of withdrawal from tobacco versus placebo group” value [2] of the same compound?
Answer: greater level of withdrawal
